Data as given in PMC9945734 (BMC Medicine, 2023).
Where “and” joins values, the source holds several entries; their conditions need not be identical. Identical values can stand only once.

Test system: PC-3-KQ and PC-3-KR cells
Test: RNA-sequencing and differential gene expression
Format: cell-based, human
Set-up: CEP19 tpm_KQ_NTZ / CCNA1 tpm_KQ_NTZ / BTN3A3 tpm_KQ_NTZ / CAPSL tpm_KQ_NTZ / CELF3 tpm_KQ_NTZ / C5orf63 tpm_KQ_NTZ / tpm MSMP / tpm MYH7B / tpm CACNG8 / CNTNAP3B tpm_KQ_NTZ / IL21R tpm_KQ_NTZ / CYP8B1 tpm_KQ_NTZ / C2orf78 tpm_KQ_NTZ / CALB1 tpm_KQ_NTZ / COL4A3 tpm_KQ_NTZ / CFB tpm_KQ_NTZ / PFKFB1 tpm_KQ_NTZ / BTBD11 tpm_KQ_NTZ: scale not given here
Settings: PC-3-KQ cells with NTZ, RNA-Seq, listed as NTZ

CC(=O)Oc1ccccc1C(=O)Nc1ncc([N+](=O)[O-])s1 [Nitazoxanide]
NT5E tpm_KQ_NTZ (replicates 1-3): -0.3117 and -0.2802 and -0.3345
NTF4 tpm_KQ_NTZ (replicates 1-3): -0.8704 and -0.4013 and -0.4312
PADI3 tpm_KQ_NTZ (replicates 1-3): -0.6957 and -0.9817 and -0.9686
PCDH18 tpm_KQ_NTZ (replicates 1-3): -1.061 and -0.1951 and -0.6677
PDGFA tpm_KQ_NTZ (replicates 1-3): 0.404 and 0.3967 and 0.4405
PDZK1 tpm_KQ_NTZ (replicates 1-3): -0.2414 and 0.3327 and -0.5574
PEG10 tpm_KQ_NTZ (replicates 1-3): -0.4908 and -0.6617 and -1.075
PFKFB1 tpm_KQ_NTZ (replicates 1-3): 0.1063 and -0.5815 and -0.9802
PGAM4 tpm_KQ_NTZ (replicates 1-3): -1.18 and 0.2721 and 0.1017
PHACTR3 tpm_KQ_NTZ (replicates 1-3): -0.9821 and -1.045 and -0.9733
PHOSPHO2 tpm_KQ_NTZ (replicates 1-3): -0.6941 and -0.4899 and -0.4437
PIANP tpm_KQ_NTZ (replicates 1-3): -0.9238 and -0.4554 and -0.5206
PITPNM3 tpm_KQ_NTZ (replicates 1-3): 0.8488 and 0.3478 and 1.199
PKIA tpm_KQ_NTZ (replicates 1-3): -0.2506 and -0.236 and -0.2863
PRKAR1B tpm_KQ_NTZ (replicates 1-3): 0.4324 and 0.4514 and 0.7549
PRKDC tpm_KQ_NTZ (replicates 1-3): 0.0232 and -0.08402 and -0.5624
PROS1 tpm_KQ_NTZ (replicates 1-3): 0.5403 and 0.6849 and 0.6327
PRR16 tpm_KQ_NTZ (replicates 1-3): -0.9713 and 0.1931 and -0.1646
PRR29 tpm_KQ_NTZ (replicates 1-3): -0.06306 and -0.3085 and -0.2669
PTPRR tpm_KQ_NTZ (replicates 1-3): 0.6595 and 1.295 and 0.9528
RBL1 tpm_KQ_NTZ (replicates 1-3): -0.1965 and -0.4796 and -0.579
RLN1 tpm_KQ_NTZ (replicates 1-3): -0.3286 and -1.073 and -1.143
RMDN2 tpm_KQ_NTZ (replicates 1-3): 0.2344 and 0.5874 and -0.2937
RND1 tpm_KQ_NTZ (replicates 1-3): 0.2005 and 0.3255 and 0.6944
S100A6 tpm_KQ_NTZ (replicates 1-3): -0.1375 and -0.00541 and 0.1164
SCG2 tpm_KQ_NTZ (replicates 1-3): 0.5158 and -0.04635 and -1.114
SDCBP2 tpm_KQ_NTZ (replicates 1-3): 0.1173 and 0.1996 and 0.2731
SERINC5 tpm_KQ_NTZ (replicates 1-3): 0.7977 and 0.7386 and 0.3271
SERPINA3 tpm_KQ_NTZ (replicates 1-3): 0.1383 and 0.1648 and 0.1316
SERPINB4 tpm_KQ_NTZ (replicates 1-3): -0.3324 and -0.2205 and -0.9332
SERPIND1 tpm_KQ_NTZ (replicates 1-3): -1.101 and -0.7105 and -1.316
SGK1 tpm_KQ_NTZ (replicates 1-3): -0.7129 and -0.3809 and -0.4182
SHISA3 tpm_KQ_NTZ (replicates 1-3): -0.1615 and -0.01424 and -0.03964
SLC1A1 tpm_KQ_NTZ (replicates 1-3): 0.007137 and 0.6447 and 0.4297
SLC26A9 tpm_KQ_NTZ (replicates 1-3): -0.2744 and 0.2725 and -0.927
SLC41A2 tpm_KQ_NTZ (replicates 1-3): 0.4534 and 0.4303 and 0.4488
SLC44A4 tpm_KQ_NTZ (replicates 1-3): 0.5521 and 0.8689 and 0.6934
SLC45A2 tpm_KQ_NTZ (replicates 1-3): 0.257 and 0.07385 and 0.3908
SLITRK5 tpm_KQ_NTZ (replicates 1-3): 0.1465 and 0.3195 and -0.4377
SMCO4 tpm_KQ_NTZ (replicates 1-3): 0.1432 and -0.08242 and 0.08549
SPOCK2 tpm_KQ_NTZ (replicates 1-3): 0.7174 and 0.4246 and 1.38
STK32A tpm_KQ_NTZ (replicates 1-3): -0.2617 and 0.04669 and 0.4294
SYN3 tpm_KQ_NTZ (replicates 1-3): 0.4729 and 0.3702 and 0.1862
TENM4 tpm_KQ_NTZ (replicates 1-3): 0.2992 and -0.3092 and -0.102
TIMM8A tpm_KQ_NTZ (replicates 1-3): -0.8837 and -0.8279 and -0.9653
TJP3 tpm_KQ_NTZ (replicates 1-3): 0.01147 and 0.1369 and 0.1215
TMEM140 tpm_KQ_NTZ (replicates 1-3): 0.2484 and 0.4158 and -0.0465
TMEM269 tpm_KQ_NTZ (replicates 1-3): 0.406 and 0.06998 and -0.4941
TMOD1 tpm_KQ_NTZ (replicates 1-3): 1.342 and 1.235 and 0.499
TMPRSS2 tpm_KQ_NTZ (replicates 1-3): 0.007165 (2×) and 0.0842
TNFAIP8L2-SCNM1 tpm_KQ_NTZ (replicates 1-3): -0.5467 and -1.562 and 0.4492
TNFRSF11B tpm_KQ_NTZ (replicates 1-3): -0.9649 and -1.078 and -1.224
TSPAN18 tpm_KQ_NTZ (replicates 1-3): 0.09114 and -0.09342 and 0.05473
TTC9 tpm_KQ_NTZ (replicates 1-3): 0.2094 and 0.2356 and 0.6409
TTC30A tpm_KQ_NTZ (replicates 1-3): -0.04558 and -0.08793 and -0.6072
TTC30B tpm_KQ_NTZ (replicates 1-3): -0.2207 and -0.5797 and -0.3178
UST tpm_KQ_NTZ (replicates 1-3): 0.2599 and 0.1194 and -0.01732
WHRN tpm_KQ_NTZ (replicates 1-3): 0.9053 and 0.8473 and 0.7758
WNT4 tpm_KQ_NTZ (replicates 1-3): 0.9814 and 1.222 and 1.387
WNT9A tpm_KQ_NTZ (replicates 1-3): 0.12 and -0.05504 and -0.01608
ZFPM2 tpm_KQ_NTZ (replicates 1-3): -0.1773 and -0.1147 and -0.2406
ZNF596 tpm_KQ_NTZ (replicates 1-3): -1.141 and -0.2632 and -0.6635
tpm ABAT (replicates NTZ1-3): 1.268 and 0.9682 and 0.237
tpm ADIRF (replicates NTZ1-3): -0.4477 and -0.5226 and -0.3352
tpm ANKRD63 (replicates NTZ1-3): 0.1535 and -0.6652 and 0.3857
tpm ANXA8 (replicates NTZ1-3): 0.9428 and 0.3454 and -1.083
tpm ANXA8L1 (replicates NTZ1-3): -0.298 and -0.4234 and -0.7464
tpm ARG2 (replicates NTZ1-3): 1.137 and 1.333 and 1.316
tpm ATP2A3 (replicates NTZ1-3): 0.8036 (2×) and -0.2131
tpm C11orf65 (replicates NTZ1-3): -1.057 and -0.2742 and -0.729
tpm CACNG8 (replicates NTZ1-3): -0.5252 and -0.3048 and -0.9129
tpm CAPN12 (replicates NTZ1-3): 0.129 and 0.1138 (2×)
tpm CD14 (replicates NTZ1-3): -1.105 and -0.7008
tpm CGB5 (replicates NTZ1-3): 0.9167 and 0.2487 and 0.1354
tpm CHPF2 (replicates NTZ1-3): 1.06 and 0.6508 and 0.6663
tpm COL4A4 (replicates NTZ1-3): 0.03123 and -0.5371 and -0.2214
tpm COL4A6 (replicates NTZ1-3): -0.1711 and -0.6593 and -0.6324
tpm CXCL5 (replicates NTZ1-3): -0.4877 and -0.4195 and -0.4771
tpm CYP1B1 (replicates NTZ1-3): 0.6593 and 0.4159 and 0.0748
tpm CYP2E1 (replicates NTZ1-3): 0.3931 and 0.8042 and 0.2474
